Assays:
Assay type in all cases: cell-based
[1] = system: adult neural progenitors taken from the mouse hippocampus; assay: Differentiation of stem cells/adult neural progenitors from hippocampal neurospheres (MAP-2/nestin immunofluorescence); details: for NPC neuronal differentiation: compared to ALC 1 mM
Protocol: The adult stem cells from the mouse hippocampus were prepared and maintained in culture in the form of neurospheres as described previously in Denis-Donini S. et al. J. Neuroscience, 2008. In particular, male CD1 mice aged 3-5 months were used, in accordance with the animal experimentation laws.
For differentiation, the cells derived from the hippocampal neurospheres with passages of between 4-12 were dissociated and plated on Lab-Tek 8-well permanox chamber slides (Nunc, Wiesbaden, Germany) previously coated with mouse laminin (2.5 μg/cm^2 Sigma) at a density of about 40,000 cells/cm^2. The composition of the differentiation medium was: Neurobasal-A, supplement B27, glutamine 2 mM, 100 U/100 μg/ml penicillin/streptomycin. ALC (0.1-2 mM) or a vehicle was added to the medium. After 24 hours the cells were washed and fixed in 4% paraformaldehyde for 20 min for subsequent analysis using immunofluorescence.
The cells fixed after differentiation in the presence of ALC, a vehicle or reference drugs were washed three times in PBS and permeabilized by incubation for 5 min, at room temperature with PBS supplemented with 0.48% (vol/vol) Triton X-100 (Sigma). Subsequently the cells were incubated with the following primary antibodies: anti-nestin mouse monoclonal antibody, 1:1200, Abcam, Cambridge, Mass.); anti-MAP-2 (rabbit polyclonal antibody, 1:600, Chemicon). The cells were incubated in the primary antibody for 150 min at room temperature in a solution containing 8% (vol/vol) of goat serum. The secondary antibodies used were: Alexa Fluor 594-conjugated donkey anti mouse antibody (1:1400, Molecular Probes), Alexa Fluor 488-conjugated donkey anti-rabbit (1:1 600, Molecular Probes), in a solution containing 16% (vol/vol) of donkey serum. The nuclei were then counterstained with Draq5 (1:2000, Alexis Biochemicals) prepared in PBS. The slides were assembled using Fluorescent Mounting Medium (DakoCytomation, Glostrup).
In each experiment, the cells of at least 5 fields/well (corresponding to about 150 cells), were quantified if positive to one or more phenotypical markers used to distinguish between them: undifferentiated stem progenitor cells, immature neurons, mature neurons. The cells were counted by an operator (blind to the nature of the treatment undergone by the cells) using an ECLIPSE E600 fluorescence microscope (NIKON, Calenzano, Italy) with a 60× lens. All experiments were conducted on at least five cell preparations, with each experimental point in triplicate.

[2] = system: adult neural progenitors taken from the mouse hippocampus; assay: Cell survival: apoptotic nuclei (Hoechst staining) after differentiation
Protocol: (§1) After differentiation in the presence of ALC, a vehicle or reference drugs, the medium was collected and the activity of the LDH enzyme was determined using the Cytotoxicity Detection Kit LDH (Roche Applied Science), following the manufacturer's instructions, to quantify death due to necrosis. In parallel, to assess also apoptotic death, after fixation, the cell nuclei were marked with 0.8 ng/ml Hoechst (Sigma-Aldrich) diluted in PBS. The apoptic nuclei were counted by an operator (blind to the nature of the treatment undergone by the cells) using an ECLIPSE E600 fluorescence microscope (NIKON, Calenzano, Italy) with a 60× lens. All experiments were conducted on at least five cell preparations, with each experimental point in triplicate.

[3] = system: adult neural progenitors taken from the mouse hippocampus; assay: Cell survival: LDH enzyme activity in culture medium (necrosis)
Protocol: as §1

[4] = Example 1, ALC 0.1-2 mM, 24 hours, FIG. 5
[5] = Example 2, 0.3-1 mM, lesser extent compared to ALC 1 mM, FIG. 6
[6] = at the concentrations that induced neurogenesis

Row | Compound | percentage of MAP-2 positive cells in culture ([1]; Example 1, ALC 0.1-2 mM, 24 hours differentiation, concentration-dependent, FIG. 1) | number of immature neurons (MAP2 positive, nestin positive) [1, 4] | number of progenitor cells (MAP2 negative, nestin negative) [1, 4] | number of stem/progenitor cells (MAP2 negative, nestin positive) [1, 4] | number of mature neurons (MAP2 positive, nestin negative) ([1]; Example 1, ALC 0.1-2 mM, 24 hours, concentration-dependent, FIG. 5) | percentage of apoptotic nuclei ([2]; ALC 100 μM, 300 μM or 1 mM, FIG. 3) | activity of the LDH enzyme, an index of necrosis, in the culture medium ([3]; ALC 100 μM, 300 μM or 1 mM, FIG. 4) | NPC neuronal differentiation ([1]; Example 2, 0.3-1 mM, FIG. 6) | number of a subpopulation of undifferentiated stem/neural progenitors [1, 5] | number of immature neurons [1, 5] | number of mature neurons [1, 5] | percentage of apoptotic nuclei [2, 6] | activity of the LDH enzyme, an index of necrosis [3, 6]
1 | CC(=O)O[C@H](CC(=O)[O-])C[N+](C)(C)C [ALC, acetyl L-carnitine] | increase | increased | decreased | no effect | increased | did not reduce | did not reduce | – | – | – | – | – | –
2 | C[N+](C)(C)C[C@H](O)CC(=O)[O-] [LC, L-carnitine] | – | – | – | – | – | – | – | no effect | – | – | – | – | –
3 | CCC(=O)O[C@H](CC(=O)[O-])C[N+](C)(C)C [PLC, propionyl L-carnitine] | – | – | – | – | – | – | – | less potent activator | reduced | increased | increased | did not reduce | did not reduce

— US11433043B2, “Compounds useful for increasing neurogenesis in neural tissue” (ALFASIGMA S.P.A., priority 2010, dated 2022)
